Laboratory results reported in the supplement of paper PMC11061612.

What was measured:
CAS-1 (Glioblastoma) [1] = test: Bliss excess, mean over the matrix (fraction); higher = more synergy
Summary of the method: (§1)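 Bliss excess equals the observed combination effect minus the expected value EA + EB − EA·EB, where EA and EB are the effects of each agent alone. Combination Emax is the second-highest inhibition within the matrix. Inhibition was scaled from CellTiter-Glo 2.0 luminescence, with 0 set by vehicle wells and 1 by blank wells, after 72 hours of two-drug dosing of cells plated in 1536-well plates.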

[2] = system: CCK-81 (Colorectal Carcinoma); test: as above
Summary of the method: as §1

[3] = system: COLO-824 (Breast Carcinoma); test: as above
Summary of the method: as §1

[4] = system: COR-L311 (Small Cell Lung Carcinoma); test: as above
Summary of the method: as §1

[5] = system: ECC10 (Gastric Carcinoma); test: as above
Summary of the method: as §1

FU97 (Gastric Carcinoma) = test: as above
Summary of the method: as §1

Hs-445 (Non-Cancerous) = test: as above
Summary of the method: as §1

[6] = system: KARPAS-422 (B-Cell Non-Hodgkin's Lymphoma); test: as above
Summary of the method: as §1

[7] = system: NCI-H1581 (Non-Small Cell Lung Carcinoma); test: as above
Summary of the method: as §1

[8] = system: NCI-H1666 (Lung Adenocarcinoma); test: as above
Summary of the method: as §1

[9] = system: NCI-H1693 (Lung Adenocarcinoma); test: as above
Summary of the method: as §1

NY (Osteosarcoma) = test: as above
Summary of the method: as §1

[10] = system: ONS-76 (Other Solid Carcinomas); test: as above
Summary of the method: as §1

[11] = system: OS-RC-2 (Kidney Carcinoma); test: as above
Summary of the method: as §1

PA-1 (Ovarian Carcinoma) = test: as above
Summary of the method: as §1

[12] = system: SISO (Cervical Carcinoma); test: as above
Summary of the method: as §1

U-2-OS (Osteosarcoma) = test: as above
Summary of the method: as §1

CAS-1 (Glioblastoma) [13] = test: combination Emax (second highest fraction inhibited in the dose matrix, 72 h); higher = more inhibition; extreme values may be limits of the assay
Summary of the method: as §1

[14] = system: COLO-824 (Breast Carcinoma); test: as above
Summary of the method: as §1

[15] = system: NCI-H2141 (Small Cell Lung Carcinoma); test: as above
Summary of the method: as §1

Structure (SMILES) | Bliss excess (CAS-1 (Glioblastoma) [1]) | Bliss excess [2] | Bliss excess [3] | Bliss excess [4] | Bliss excess [5] | Bliss excess (FU97 (Gastric Carcinoma)) | Bliss excess (Hs-445 (Non-Cancerous)) | Bliss excess [6] | Bliss excess [7] | Bliss excess [8] | Bliss excess [9] | Bliss excess (NY (Osteosarcoma)) | Bliss excess [10] | Bliss excess [11] | Bliss excess (PA-1 (Ovarian Carcinoma)) | Bliss excess [12] | Bliss excess (U-2-OS (Osteosarcoma)) | combination Emax (CAS-1 (Glioblastoma) [13]) | combination Emax [14] | combination Emax [15]
COc1cc2c(cc1OCCCCCOc1cc3c(cc1OC)C(=O)N1C=C(C)C[C@H]1C=N3)N=C[C@@H]1CC(C)=CN1C2=O [SG3199] + O=C(c1cc(Cc2n[nH]c(=O)c3ccccc23)ccc1F)N1CCN(C(=O)C2CC2)CC1 [Olaparib] (first compound max 0.001 µM, 7x7, partner max 10 µM) | -0.0058 | 0.0003 | -0.03 | 0.0282 | -0.0238 | -0.0513 | -0.0116 | -0.0044 | -0.0322 | -0.0477 | -0.0209 | -0.0456 | -0.0635 | -0.0484 | 0.0131 | -0.0198 | -0.0203 | 0.235 | 0.147 | 0.197
CCc1c2c(nc3ccc(O)cc13)-c1cc3c(c(=O)n1C2)COC(=O)[C@]3(O)CC [SN-38] + CN(C)CCCOc1ccc(-c2ccc3ncc4c(c3c2)n(C2CCOCC2)c(=O)n4C)cn1 [AZD0156] (first compound max 0.3 µM, 7x7, partner max 1 µM) | -0.0101 | 0.135 | 0.0473 | -0.152 | -0.143 | -0.0484 | -0.018 | -0.0862 | 0.016 | 0.0313 | -0.0099 | -0.0288 | 0.0091 | -0.0022 | 0.0713 | 0.0978 | -0.0193 | 0.494 | 0.509 | 0.451
C[C@@H](c1ccc2nccn2c1)n1nnc2ncc(-c3cnn(C)c3)nc21 [Savolitinib] + CC1(C)CCC(CN2CCN(c3ccc(C(=O)NS(=O)(=O)c4ccc(NCC5CCOCC5)c([N+](=O)[O-])c4)c(Oc4cnc5[nH]ccc5c4)c3)CC2)=C(c2ccc(Cl)cc2)C1 [Venetoclax] (first compound max 1 µM, 7x7, partner max 1 µM) | -0.055 | -0.0615 | -0.0178 | -0.022 | 0.0258 | -0.0344 | -0.0642 | -0.0282 | -0.0697 | -0.0595 | -0.0639 | -0.0147 | -0.0468 | -0.0854 | -0.0163 | -0.0438 | -0.0397 | 0.212 | 0.61 | 0.198
C[C@@H](c1ccc2nccn2c1)n1nnc2ncc(-c3cnn(C)c3)nc21 [Savolitinib] + Cc1c2c(nn1C)CSCc1cc(n(C)n1)CSc1cc(c3ccccc3c1)OCCCc1c(C(=O)O)n(C)c3c-2c(Cl)ccc13 [AZD5991] (first compound max 1 µM, 7x7, partner max 1 µM) | -0.0584 | -0.0402 | -0.0212 | -0.0246 | 0.0229 | -0.0118 | -0.0407 | -0.0462 | -0.0209 | -0.0577 | -0.0684 | -0.0288 | -0.0219 | -0.0561 | -0.0266 | -0.0596 | -0.0271 | 0.194 | 0.356 | 0.234
Cn1cnc2c(F)c(Nc3ccc(Br)cc3Cl)c(C(=O)NOCCO)cc21 [Selumetinib] + C=CCn1c(=O)c2cnc(Nc3ccc(N4CCN(C)CC4)cc3)nc2n1-c1cccc(C(C)(C)O)n1 [AZD1775] (first compound max 10 µM, partner max 1 µM) | -0.0342 | -0.0167 | -0.105 | -0.0518 | -0.0058 | 0.0052 | -0.133 | -0.0508 | 0.0258 | -0.0542 | -0.0092 | -0.071 | -0.0452 | -0.023 | -0.001 | -0.0457 | -0.0328 | 0.39 | 0.76 | 0.547
Cn1cnc2c(F)c(Nc3ccc(Br)cc3Cl)c(C(=O)NOCCO)cc21 [Selumetinib] + CC(C)n1c(=O)n(C)c2cnc3cc(F)c(-c4ccc(OCCCN5CCCCC5)nc4)cc3c21 [AZD1390] (first compound max 10 µM, 7x7, partner max 0.3 µM) | -0.053 | 0.0157 | -0.018 | -0.0541 | 0.0038 | -0.0344 | -0.0425 | -0.032 | 0.0074 | 0.0058 | -0.0814 | -0.0149 | -0.0108 | -0.0371 | 0.0162 | -0.0395 | -0.0464 | 0.241 | 0.302 | 0.0858
Cn1cnc2c(F)c(Nc3ccc(Br)cc3Cl)c(C(=O)NOCCO)cc21 [Selumetinib] + CCN(CCO)CCCOc1ccc2c(Nc3cc(CC(=O)Nc4cccc(F)c4)[nH]n3)ncnc2c1 [AZD2811] (first compound max 10 µM, 7x7, partner max 1 µM) | -0.0349 | 0.0101 | -0.0218 | -0.0546 | -0.094 | -0.0013 | 0.013 | 0.0206 | -0.0775 | -0.0506 | -0.0196 | -0.0102 | -0.0464 | -0.0252 | -0.0998 | 0.015 | -0.0111 | 0.277 | 0.825 | 0.167
Cn1cnc2c(F)c(Nc3ccc(Br)cc3Cl)c(C(=O)NOCCO)cc21 [Selumetinib] + C[C@@H]1COCCN1C2=NC(=NC(=C2)C3(CC3)[S@](=N)(=O)C)C4=C5C=CNC5=NC=C4 [AZD6738] (first compound max 10 µM, 7x7, partner max 10 µM) | -0.0163 | 0.0233 | -0.0111 | -0.056 | 0.0198 | 0.0267 | -0.0473 | -0.0396 | -0.0025 | -0.0124 | -0.0017 | 0.0613 | -0.0914 | -0.0455 | 0.0267 | -0.0241 | -0.0443 | 0.545 | 0.718 | 0.409
CC1(C)CCC(CN2CCN(c3ccc(C(=O)NS(=O)(=O)c4ccc(NCC5CCOCC5)c([N+](=O)[O-])c4)c(Oc4cnc5[nH]ccc5c4)c3)CC2)=C(c2ccc(Cl)cc2)C1 [Venetoclax] + C1CN(CCC1(C(=O)N[C@@H](CCO)C2=CC=C(C=C2)Cl)N)C3=NC=NC4=C3C=CN4 [Capivasertib] (first compound max 1 µM, 7x7, partner max 3 µM) | -0.0653 | -0.039 | 0.0048 | -0.0022 | -0.0202 | -0.0295 | 0.0344 | 0.0459 | -0.041 | -0.0541 | -0.0333 | 0.0029 | -0.114 | -0.0442 | -0.0541 | -0.0557 | -0.0414 | 0.407 | 0.881 | 0.249
CC1(C)CCC(CN2CCN(c3ccc(C(=O)NS(=O)(=O)c4ccc(NCC5CCOCC5)c([N+](=O)[O-])c4)c(Oc4cnc5[nH]ccc5c4)c3)CC2)=C(c2ccc(Cl)cc2)C1 [Venetoclax] + C=CCn1c(=O)c2cnc(Nc3ccc(N4CCN(C)CC4)cc3)nc2n1-c1cccc(C(C)(C)O)n1 [AZD1775] (first compound max 1 µM, partner max 1 µM) | 0.0375 | -0.066 | 0.0202 | -0.104 | 0.0951 | 0.0519 | 0.127 | 0.0389 | -0.009 | -0.0228 | -0.0281 | 0.0137 | 0.0043 | -0.078 | 0.0034 | -0.0765 | -0.018 | 0.615 | 0.967 | 0.792
CC1(C)CCC(CN2CCN(c3ccc(C(=O)NS(=O)(=O)c4ccc(NCC5CCOCC5)c([N+](=O)[O-])c4)c(Oc4cnc5[nH]ccc5c4)c3)CC2)=C(c2ccc(Cl)cc2)C1 [Venetoclax] + CCN(CCO)CCCOc1ccc2c(Nc3cc(CC(=O)Nc4cccc(F)c4)[nH]n3)ncnc2c1 [AZD2811] (first compound max 1 µM, 7x7, partner max 1 µM) | -0.0052 | -0.0122 | 0.0087 | 0.0261 | 0.0068 | 0.024 | 0.0894 | 0.242 | -0.0024 | 0.0171 | 0.0169 | -0.0304 | -0.0244 | -0.0484 | 0.0002 | -0.0091 | -0.0188 | 0.271 | 1 | 0.482
CC1(C)CCC(CN2CCN(c3ccc(C(=O)NS(=O)(=O)c4ccc(NCC5CCOCC5)c([N+](=O)[O-])c4)c(Oc4cnc5[nH]ccc5c4)c3)CC2)=C(c2ccc(Cl)cc2)C1 [Venetoclax] + CN(C)CCCOc1ccc(-c2ccc3ncc4c(c3c2)n(C2CCOCC2)c(=O)n4C)cn1 [AZD0156] (first compound max 1 µM, 7x7, partner max 1 µM) | -0.0046 | -0.0054 | 0.0588 | 0.0654 | 0.0243 | -0.0293 | -0.035 | 0.0398 | 0.0054 | -0.0085 | -0.0123 | -0.0939 | -0.054 | -0.0456 | 0.0367 | 0.0004 | -0.0107 | 0.239 | 0.783 | 0.148
